Source: patent US20240390337A1, “RELA/RSH INHIBITORS FOR THE TREATMENT OR PREVENTION OF MEDICAL BIOFILMS” (DREXEL UNIVERSITY, priority 2021, published 2024)

Experiments:
[1] = system: E. coli C biofilm; experiment: Biofilm persistence assay with ampicillin (crystal violet); assay type: cell-based
Experimental: Biofilm persistence and viability were assessed with the hit compounds in combination with an antibiotic. It has been determined that sub-MICs (minimum inhibitory concentration) of antibiotic result in increased biofilm formation. Ampicillin was used in all of the assays due to its bactericidal effect. Sub-MIC concentrations of ampicillin were determined by growth measurements (OD600). […] Biofilm Persistence Assays with Ampicillin: Biofilms were grown for 24 or 48 h as described elsewhere herein. Planktonic cells were removed, and the biofilms were washed twice with 250 μL sterile PBS solution. Two hundred microliters of fresh LB medium with various concentrations of ampicillin were dispensed into the wells. After 18 h of incubation at 37° C., the volume of biofilm was measured by CV staining as described elsewhere herein.

[2] = system: Pseudomonas aeruginosa; experiment: Toxin production by P. aeruginosa (Example 4, FIG. 42); assay type: cell-based; conditions: read-out: EC50 of inhibition of toxin production
[3] = target: T1, RelA enzyme (Escherichia coli, UniProt P0AG20); experiment: Semi-HTS and IC50, in vitro RelA ppGpp production assay ([α-32P]GTP); assay type: biochemical, E. coli; conditions: for IC50: concentration gradient, in vitro radio isotope assay
T1 sequence (P0AG20 whole entry): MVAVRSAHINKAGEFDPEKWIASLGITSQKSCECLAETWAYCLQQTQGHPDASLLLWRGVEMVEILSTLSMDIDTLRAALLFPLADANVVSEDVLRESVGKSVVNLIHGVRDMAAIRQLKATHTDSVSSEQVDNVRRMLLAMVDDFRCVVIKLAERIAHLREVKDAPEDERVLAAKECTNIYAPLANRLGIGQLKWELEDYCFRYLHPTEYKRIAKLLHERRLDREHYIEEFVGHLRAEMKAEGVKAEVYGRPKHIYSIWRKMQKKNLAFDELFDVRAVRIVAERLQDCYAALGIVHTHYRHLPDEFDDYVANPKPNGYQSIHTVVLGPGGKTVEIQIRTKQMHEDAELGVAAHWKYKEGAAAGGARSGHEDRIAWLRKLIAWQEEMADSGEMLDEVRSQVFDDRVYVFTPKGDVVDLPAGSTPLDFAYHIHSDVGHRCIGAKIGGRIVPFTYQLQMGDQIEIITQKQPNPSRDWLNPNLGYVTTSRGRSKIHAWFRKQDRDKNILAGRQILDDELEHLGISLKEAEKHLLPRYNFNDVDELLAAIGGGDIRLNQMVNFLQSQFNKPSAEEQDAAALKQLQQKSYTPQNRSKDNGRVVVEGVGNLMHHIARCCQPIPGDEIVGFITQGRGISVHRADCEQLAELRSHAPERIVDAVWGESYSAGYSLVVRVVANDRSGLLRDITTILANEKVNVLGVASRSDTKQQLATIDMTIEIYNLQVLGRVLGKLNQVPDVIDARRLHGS
Experimental: The next step of the semi-HTS was to run the 40 in silico determined compounds in an in vitro RelA assay at a relatively high concentration of 200 μM, to test if there is any effect on RelA ppGpp production using the α-32P-GTP radio isotope in vitro assay. […] From this assay, two compounds were picked to go into later assays (C14 [4.2%], C22 [13.4%]).
The follow-up assay to the semi-HTS is determination of in vitro half-maximal inhibitory concentration (IC50). In vitro IC50 is completed by a concentration gradient run on the in vitro radio isotope assay (FIG. 29B). […] C14 was originally purchased from Enamine®; however, it was later synthesized in-house as more was needed than could be purchased.
RelA enzyme was purified as described in Example 2.

[4] = system: P. aeruginosa PA14
Experimental: P. aeruginosa PA14 was grown overnight in LB Miller broth at 37° C. with shaking (250 rpm). […] This was then grown for 18 h at 37° C. Cells were pelleted by centrifugation. One milliliter of supernatant was collected, and 1 mL of chloroform was added to the supernatant. Layers were separated and OD690 was taken for chloroform layer (blue). OD690 was normalized to culture cell density OD600.

[5] = system: E. coli C; experiment: E. coli C aggregation assay; conditions: high salt, low temperature, amino acid starvation
Experimental: E. coli C was grown in LB Miller broth at 30° C. with shaking (250 rpm) with or without compounds. E. coli C ΔrelA mutant was also grown as a control. One milliliter of the culture was transferred to standard polypropylene spectrophotometer cuvettes to measure planktonic cells densities (OD600). Remaining cultures were vortexed ˜1 min and 1 mL was aliquoted into cuvettes to measure the total cell densities (OD600). Aggregation was calculated as a ratio of planktonic to total cell density.

[6] = system: P. aeruginosa PA14; experiment: Biofilm formation in P. aeruginosa PA14; assay type: cell-based
Experimental: (§1) Biofilm Inhibition Assays: For biofilm formation on polystyrene surfaces, flat-bottom 96-well microtiter plates (Corning Inc.) were used. […] The biofilm mass was measured by the CV staining assay described elsewhere herein.

[7] = system: E. coli C biofilm; experiment: Biofilm inhibition assay (crystal violet); assay type: cell-based; conditions: results not shown
Experimental: Studies were conducted in 96-well high-throughput assays. In the biofilm inhibition assay, compounds were added to the wells at the beginning of the experiment. For the biofilm dispersal assay, the biofilm was allowed to grow for 24 and 48 h, the wells were washed with sterile phosphate-buffered saline (PBS), and fresh medium supplemented with the compounds was added to the wells. The amount of biofilm was measured after 24 h.
as §1

[8] = system: P. aeruginosa PA01; experiment: Biofilm formation in P. aeruginosa PA01; assay type: cell-based; conditions: results not shown
Experimental: as §1

[9] = system: (p)ppGpp production in E. coli C; experiment: In vivo (p)ppGpp quantification in E. coli C (32P orthophosphate, serine hydroxamate, TLC); assay type: cell-based; conditions: 20 μM compound
Experimental: In vivo (p)ppGpp Quantification: In vivo (p)ppGpp quantification was carried out. One milliliter of overnight cell culture of E. coli C was placed in 1.5-mL microcentrifuge tubes and pelleted. To this pellet was added 50 μL of a reaction mixture containing 20 μCi orthophosphoric acid and 40 μM serine hydroxamate in 1×MOPS minimal medium. The cell pellet was resuspended by gentle vortexing and placed in an incubator for 1 h. Cell growth arrest and cell lysis were completed by addition of 15 μL formic acid (88%). The lysate was then centrifuged to remove any insoluble components and the supernatant was spotted on a stationary-phase PEI-cellulose TLC plate. Plates were processed and analyzed as described elsewhere herein.

[10] = target: T1, RelA enzyme; experiment: In vitro (p)ppGpp quantification (RelA ppGpp production assay, [γ-32P]ATP, TLC); conditions: 20 μM compound
Experimental: The direct (p)ppGpp detection in vivo and in vitro assays relied on different 32P radioactive nucleotides (γ-32P-ATP, α-32P-GTP) for use as substrates, and thin-layer chromatography (TLC) to separate the reaction products (stationary phase: polyethylenimine cellulose).
Both methods required TLC with a stationary phase of a polyethyleneimine (PEI)-cellulose plate and a mobile phase of 1 M potassium phosphate monobasic.
In vitro (p)ppGpp quantification: in vitro (p)ppGpp quantification was carried out. […] Roughly 0.4 μg of RelA protein was added to a 1.5-mL microcentrifuge tube containing a reaction mix composed of 1×PBS, 5 mM MgCl2, 0.5 mM ATP, 0.5 mM GTP, 0.5 mM GDP, and 20 μCi[γ-32P]ATP (3,000 Ci mmol-1; PerkinElmer) and varying concentrations of the compound of interest. These reactions were incubated at 37° C. for 1 h. The reactions were stopped by addition of 5 μL formic acid (88%). The reaction mixtures were then spotted on a stationary-phase polyethyleneimine (PEI)-cellulose TLC plate using potassium phosphate monobasic (1.5 M) as the mobile-phase. The plates were then dried, and the radiation levels were read using a Molecular Dynamics Storage Phosphor Screen. A Molecular Dynamics Storm 840 Phosphor imager Scanner was used to read the phosphor screen and ImageJ was used to process the images.

[11] = system: E. coli C biofilm; experiment: Synergistic effects of compounds and ampicillin on biofilm biomass (crystal violet); assay type: cell-based; conditions: versus antibiotic-only control; for reduction of biofilm biomass at Amp40: ampicillin 40 μg·mL−1, S3-G1A and S3-G1B 50 μM, IDR1018 5 μM; for reduction in biofilm biomass at Amp50: ampicillin 50 μg·mL−1
Experimental: Biofilm Dispersal Assays: For biofilm formation on polystyrene surfaces, flat-bottom 96-well microtiter plates (Corning Inc.) were used. […] These were allowed to grow for 24 h. The planktonic cells and medium were then aspirated, and the plates were washed twice with 1×PBS. Fresh LB with hit compounds were added to the biofilm wells. These cultures were then allowed to incubate at 37° C. overnight. Cell density were measured (OD600) using a Multiscan Go plate reader (ThermoFisher), and 30 μL Gram crystal violet (CV) (Remel; 3 g crystal violet, 50 mL isopropanol, 50 mL ethanol, 900 mL purified water) was applied for staining for 1 h. Plates were washed with water and air dried, and CV was solubilized with an ethanol:acetone (4:1) solution. The OD570 was determined from this solution, and the biofilm volume was calculated as the ratio of OD570 to OD600. Synergistic Effects of Compounds and Antibiotics: Biofilms were grown for 24, 48, or 72 h as described elsewhere herein. Planktonic cells were then removed, and biofilms were washed twice with 250 μL sterile PBS solution. Two hundred microliter aliquots of fresh LB medium with multiple concentrations of the tested compounds and ampicillin were dispensed into the wells. After 18 h of incubation at 37° C., the biofilm mass was measured as described elsewhere herein. For the AlamarBlue viability test, 4 μL of AlamarBlue (Invitrogen) was added and plates were incubated in a Biotek HT plate reader at 37° C. for 4 h. Cell viability was measured as fluorescence at 530/590 nm (excitation/emission) versus compound concentration or initial cell density.

[12] = system: E. coli C; experiment: Cell growth curves (planktonic growth, OD600); conditions: 30 μg·mL−1
Experimental: Cell Growth Curves: The effect of the hit compounds on bacterial growth was tested by adding compounds at multiple concentrations to the bacterial culture (100× diluted overnight culture; approximately 10^7 cells) in fresh LB medium. Two hundred microliters aliquots were pipetted into 96-well plates and placed into a Biotek HT or Tecan Infinite M200 Pro plate reader for 18 h at 37° C. Plates were shaken during incubation and the optical density (OD630 or OD600) was measured every 15 min.
The effect of the hit compounds on bacterial growth was tested by adding compounds at 200 μM (with DMSO control) to the bacterial culture (100× diluted overnight culture; approximately 10^7 cells) in fresh LB medium. Two hundred microliter aliquots were pipetted into 96-well plates, which were placed into a Biotek HT or Tecan Infinite M200 Pro plate reader for 18 h at 37° C. Plates were shaken during incubation and the optical density (OD630 or OD600) was measured every 15 min.

[13] = system: E. coli C biofilm; experiment: AlamarBlue viability assay of biofilm cells, compounds plus ampicillin; assay type: cell-based
Experimental: Synergistic Effects of Compounds and Antibiotics: Biofilms were grown for 24, 48, or 72 h as described elsewhere herein. Planktonic cells were then removed, and biofilms were washed twice with 250 μL sterile PBS solution. Two hundred microliter aliquots of fresh LB medium with multiple concentrations of the tested compounds and ampicillin were dispensed into the wells. After 18 h of incubation at 37° C., the biofilm mass was measured as described elsewhere herein. For the AlamarBlue viability test, 4 μL of AlamarBlue (Invitrogen) was added and plates were incubated in a Biotek HT plate reader at 37° C. for 4 h. Cell viability was measured as fluorescence at 530/590 nm (excitation/emission) versus compound concentration or initial cell density.

| Compound | IC50 [3] | effect on pyocyanin production [4] | reduction in ppGpp production, in vivo assay [9] | reduction of ppGpp production compared to untreated sample, in vitro assay [10] | reduction of biofilm biomass at Amp40 [11] | reduction in biofilm biomass at Amp50 [11] | other results |
| --- | --- | --- | --- | --- | --- | --- | --- |
| CC1(C)S[C@@H]2[C@H](NC(=O)[C@H](N)c3ccccc3)C(=O)N2[C@H]1C(=O)O [Ampicillin] | – | – | – | – | – | – | ampicillin concentration with the highest biofilm biomass [1]: 80 µg/mL; effect on amount of biofilm [1]: significantly increased the amount of biofilm |
| O=C(O)Cn1cc(C[C@H]2NC(=O)NC2=O)nn1 [Compound C14] | 54 µM | – | – | – | – | – | EC50 [2]: 0.0395 µM |
| O=C(O)CCNC(=O)c1cccc(-n2cc(Br)cn2)c1 [Compound C22, 3-(3-(4-bromo-1H-pyrazol-1-yl)benzamido)propanoic acid] | 93 µM | produced an effect, it never reached the level of C14 | – | – | – | – | E. coli C aggregation [5]: slightly absent; biofilm formation compared to the DMSO control [6]: reduced biofilm formation but not significantly; effect on biofilm formation [7]: little effect; ppGpp production relative to the untreated control (set at 100%) ([3]; 200 μM compound): 13.4%; effect on biofilm formation [8]: little effect |
| O=C(N[C@H](C(=O)O)c1ccc(Cl)cc1)c1cc(-c2ccc(O)cc2)n[nH]1 [Compound S3-G1A, (S)-2-(4-chrlorphenyl)-2-(3-(4-hydroxyphenyl)-1H-pyrazole-5carboxamido) acetic acid] | – | small effect | 31.4% | 71.7% | 97.9% | 67.9% | effect on planktonic growth rate / bacterial growth [12]: no effect; reduction of cell viability (AlamarBlue) at Amp30 ([13]; ampicillin 30 μg·mL−1, compound 50 μM): 55.4%; decrease of cell viability (AlamarBlue) at higher concentrations of antibiotic ([13]; higher concentrations of ampicillin (not specified)): 29.2% |
| CC(C)C(=O)Nc1nc2c(ncn2[C@H]2C[C@H](OC(=O)NCC(=O)NCC(=O)O)[C@@H](COC(=O)NCC(=O)NCC(=O)O)O2)c(=O)[nH]1 [Relacin, reference compound] | – | – | no effect | 45.4% | – | – | – |
| IDR1018 [reference compound] | – | – | – | – | 75.4% | 65.2% | – |
